The record followed here is patent US20090105237A1, “Cooling compounds” (priority 2005, published 2009).

The structures appear in SMILES notation.

What all share (type): in vivo
Experiment [1] concerns panelists. As to the kind of experiment: Panel tasting of solutions of cooling compounds: concentration with cooling intensity similar or slightly higher than menthol at 2 ppm. As to conditions: solution with cooling intensity similar or slightly higher than a solution of menthol at 2 ppm; small group of panelists.
Experiment [2] concerns mouth. The experiment can be described thus: Application in chewing gum: gum stick chewed by a panelist for 15 minutes and spit out. The procedure:
All the ingredients are mixed in the prewarmed gum base. The mixture is spread in thick films, cooled down and cut in sticks. A gum stick is chewed by a panelist for 15 minutes and spit out. […] When spit out, the cooling sensation becomes intense and lasts for several hours

The test system of experiment [3] is mouth. The experiment can be described thus: Application in toothpaste: panelist's teeth brushed with toothgel, mouth rinsed with water. From the text: The chemicals are mixed in the toothgel, a piece of toothgel was put on a toothbrush and a panelist's teeth were brushed. The mouth was rinsed with water and the water was spit out. […] The cooling perception lasted for several hours.

In experiment [1], `CC1CCC(C(C)C)C(C(=O)Nc2ccc(C(N)=O)cc2)C1` (stereo not drawn) [Example 1, N-(4-carboxamidophenyl) p-menthanecarboxamide] showed a Concentration of 0.15 ppm. For the same compound, the “cooling sensation when spit out” value in experiment [2] (chewing gum with 0.100 g compound per about 100 g, with peppermint oil, after 15 minutes of chewing) was “intense”. In addition, the “cooling sensation when chewed” value in experiment [2] (chewing gum with 0.100 g compound per about 100 g, with peppermint oil, chewed 15 minutes, all areas of the mouth) was “agreeable cooling sensation”. Moreover, in experiment [2] (chewing gum, after it is spit out), the “duration of cooling sensation” value is listed as “several hours”.

`CC1CCC(C(C)C)C(O)C1` (stereo not drawn) [Example 1-Menthol, 1-Menthol, reference compound] yielded a Concentration in experiment [1] of 2.0 ppm.

Regarding `CC1CCC(C(C)C)C(C(=O)Nc2cccc(C(N)=O)c2)C1` (stereo not drawn) [Example 2, N-(3-carboxamidophenyl) p-menthanecarboxamide], the Concentration in experiment [1] was determined as 0.2 ppm.

Consider `CC1CCC(C(C)C)C(C(=O)Nc2ccccc2C(N)=O)C1` (stereo not drawn) [Example 3, N-(2-carboxamidophenyl) p-menthanecarboxamide], for which the Concentration in experiment [1] worked out at 0.5 ppm. Also, in experiment [3] (0.500 g of a 5% gel in peppermint oil in 99.500 g opaque toothgel, after rinsing, all areas of the mouth), the “cooling sensation after brushing” value is recorded as “intense cooling sensation”. In addition, the “duration of cooling perception” value in experiment [3] (toothgel, after brushing and rinsing) was “several hours”.

`COCCNC(=O)c1ccc(NC(=O)C2CC(C)CCC2C(C)C)cc1` (stereo not drawn) [Example 4, 4-[p-menthanecarbonyl-amino]-N-(2-methoxy-ethyl)-benzamide]: in experiment [1], the Concentration is 0.25 ppm.

`CC1CCC(C(C)C)C(C(=O)Nc2ccc(C(=O)N3CCN(C)CC3)cc2)C1` (stereo not drawn) [Example 5, N-(4-(4-methylpiperazine-1-carbonyl)phenyl) p-menthanecarboxamide] showed a Concentration in experiment [1] of 0.4 ppm.

On to `CCNC(=O)C1CC(C)CCC1C(C)C` (stereo not drawn) [N-ethyl p-menthanecarboxamide (WS-3), N-ethyl p-menthanecarboxamide, reference compound], for which the Concentration in experiment [1] came out at 1.5 ppm.
